With `COc1ccc(NC(=O)c2c[nH]c3c(c2=O)CCCC3)cc1`, the melting point (usually the temperature, or range, at which the solid turns liquid) lay in the range of 287 to 290 °C.

`CC(C)Oc1ccc(CNC(=O)c2c[nH]c3c(c2=O)CCCC3)c(F)c1`: the melting point is 197 to 200 °C.

Regarding `CCCCNC(=O)c1c[nH]c2c(c1=O)CCCCC2`, the melting point fell in the range of 138 to 143 °C.

`Cc1csc(NC(=O)c2c[nH]c3c(c2=O)CCCC3)n1`: the melting point is 350 to 352 °C.

Turning to `COc1ccc(CNC(=O)c2c[nH]c3c(c2=O)CCC3)cc1`, the melting point was in the range of 240 to 241 °C.

As for `O=C(Nc1ccccn1)c1c[nH]c2c(c1=O)CCC2`, the melting point is 294 to 295 °C.

In the case of `O=C(Nc1c(F)cccc1F)c1c[nH]c2c(c1=O)CCCC2`, the melting point lay within 278 to 280 °C.

`CCOc1ccc(CNC(=O)c2c[nH]c3c(c2=O)CCCC3)cc1`: the melting point was in the range of 241 to 243 °C.

The compound `COc1ccc(NC(=O)c2c[nH]c3c(c2=O)CCC3)cc1` showed a melting point of 330 to 332 °C.

As for `COc1ccc(NC(=O)c2c[nH]c3c(c2=O)CCCCC3)cc1`, the melting point lay within 240 to 242 °C.

`CCOc1ccc(CNC(=O)c2c[nH]c3c(c2=O)CCC3)c(F)c1` gave a melting point of 217 to 219 °C.

Regarding `O=C(NCc1c(F)cccc1F)c1c[nH]c2c(c1=O)CCC2`, the melting point is 294 to 295 °C.

`O=C(NCc1ccc(Cl)cc1)c1c[nH]c2c(c1=O)CCCC2` yielded a melting point of 283 to 285 °C.

`O=C(Nc1cccc(F)c1)c1c[nH]c2c(c1=O)CCC2`: the melting point is 340 °C (dec.).

For `O=C(Nc1ccccc1F)c1c[nH]c2c(c1=O)CCC2`, the melting point was 330 °C (dec.).

In turn, `O=C(Nc1ccc(F)cc1)c1c[nH]c2c(c1=O)CCCC2` displayed a melting point of 324 to 326 °C.

`O=C(NCc1ccc(F)cc1)c1c[nH]c2c(c1=O)CCCCC2` showed a melting point of 219 to 222 °C.

Take `O=C(Nc1ccc(F)cc1F)c1c[nH]c2c(c1=O)CCC2`: the melting point is 328 °C (dec.).

For `O=C(Nc1cccs1)c1c[nH]c2c(c1=O)CCCC2`, the melting point is 306 °C (dec.).

`O=C(NCc1ccc(F)cc1)c1c[nH]c2c(c1=O)CCCC2` had a melting point of 278 to 280 °C.

The compound `O=C(NCc1ccc2c(c1)OCO2)c1c[nH]c2c(c1=O)CCCC2` had a melting point of 263 to 265 °C.

On to `O=C(Nc1ccsc1)c1c[nH]c2c(c1=O)CCCC2`, for which the melting point fell in the range of 321 to 324 °C.

`O=C(NCc1ccccc1F)c1c[nH]c2c(c1=O)CCCC2` had a melting point of 206 to 208 °C.

On to `O=C(Nc1nccs1)c1c[nH]c2c(c1=O)CCC2`, for which the melting point was 305 °C (dec.).

`COc1ccccc1CNC(=O)c1c[nH]c2c(c1=O)CCCC2` returned a melting point of 217 to 219 °C.

As to `O=C(Nc1cccnc1)c1c[nH]c2c(c1=O)CCCC2`, the melting point is 308 °C (dec.).

`CCCOc1ccc(CNC(=O)c2c[nH]c3c(c2=O)CCC3)c(F)c1`: the melting point fell in the range of 209 to 211 °C.

Compound `Cc1ccc(CNC(=O)c2c[nH]c3c(c2=O)CCCC3)cc1` gave a melting point of 270 to 273 °C.

For the compound `O=C(NCc1ccccc1F)c1c[nH]c2c(c1=O)CCC2`, the melting point is 259 to 261 °C.

For `COc1ccc(CNC(=O)c2c[nH]c3c(c2=O)CCCCC3)cc1`, the melting point lay within 203 to 205 °C.

Regarding `CCOc1ccc(CNC(=O)c2c[nH]c3c(c2=O)CCCC3)c(F)c1`, the melting point lay in the range of 178 to 181 °C.

In the case of `O=C(Nc1cccc(F)c1)c1c[nH]c2c(c1=O)CCCC2`, the melting point lay within 319 to 320 °C.

`COc1cccc(CNC(=O)c2c[nH]c3c(c2=O)CCCC3)c1` had a melting point of 210 to 212 °C.

Turning to `COc1ccnc(NC(=O)c2c[nH]c3c(c2=O)CCCC3)c1`, the melting point was 312 °C (dec.).

In the case of `O=C(Nc1nccs1)c1c[nH]c2c(c1=O)CCCCC2`, the melting point is 301 °C (dec.).

`O=C(Nc1nccs1)c1c[nH]c2c(c1=O)CCCC2`: the melting point was 260 °C (dec.).

Turning to `O=C(NCc1ccccc1)c1c[nH]c2c(c1=O)CCCCC2`, the melting point fell in the range of 224 to 226 °C.

For `COc1ccc(CNC(=O)c2c[nH]c3c(c2=O)CCCC3)cc1`, the melting point fell in the range of 241 to 244 °C.

In turn, `O=C(Nc1ccc(OCCO)cc1)c1c[nH]c2c(c1=O)CCC2` showed a melting point of 220 to 222 °C.

Turning to `O=C(Nc1c(F)cccc1F)c1c[nH]c2c(c1=O)CCC2`, the melting point is 297 °C (dec.).

With `O=C(Nc1ccccc1F)c1c[nH]c2c(c1=O)CCCC2`, the melting point lay in the range of 241 to 244 °C.

Turning to `O=C(Nc1cccs1)c1c[nH]c2c(c1=O)CCC2`, the melting point was 210 °C (dec.).

Turning to `COc1cccc(CNC(=O)c2c[nH]c3c(c2=O)CCC3)c1`, the melting point was 204 to 205 °C.

In turn, `O=C(Nc1ccccc1)c1c[nH]c2c(c1=O)CCCC2` registered a melting point of 299 to 300 °C.

In turn, `O=C(Nc1ccccc1Cl)c1c[nH]c2c(c1=O)CCCC2` showed a melting point of 339 to 341 °C.

`O=C(NCc1cccc(Cl)c1)c1c[nH]c2c(c1=O)CCCC2` had a melting point of 247 to 249 °C.

`Cc1cccc(CNC(=O)c2c[nH]c3c(c2=O)CCCC3)c1`: the melting point is 242 to 245 °C.

On to `COc1cccc(NC(=O)c2c[nH]c3c(c2=O)CCC3)c1`, for which the melting point was 320 °C (dec.).

The compound `COc1ccc(CNC(=O)c2c[nH]c3c(c2=O)CCCC3)c(F)c1` returned a melting point of 257 to 259 °C.

On to `O=C(NCc1cccc(O)c1)c1c[nH]c2c(c1=O)CCCC2`, for which the melting point is 133 to 136 °C.

In turn, `O=C(NCc1cccs1)c1c[nH]c2c(c1=O)CCCC2` came in with a melting point of 245 to 248 °C.

Compound `O=C(Nc1ccccc1)c1c[nH]c2c(c1=O)CCC2` gave a melting point of 295 to 296 °C.

`O=C(NCc1cccc(F)c1)c1c[nH]c2c(c1=O)CCCC2` registered a melting point of 267 to 270 °C.

Turning to `COc1ccccc1CNC(=O)c1c[nH]c2c(c1=O)CCC2`, the melting point lay in the range of 243 to 244 °C.

As to `COc1cccc(NC(=O)c2c[nH]c3c(c2=O)CCCC3)c1`, the melting point lay within 275 to 280 °C.

Turning to `O=C(NCc1ccccc1)c1c[nH]c2c(c1=O)CCC2`, the melting point was in the range of 149 to 150 °C.

As to `Cc1csc(NC(=O)c2c[nH]c3c(c2=O)CCC3)n1`, the melting point lay within 304 to 305 °C.

With `CC(C)Oc1ccc(CNC(=O)c2c[nH]c3c(c2=O)CCC3)c(F)c1`, the melting point was 214 °C (dec.).

In turn, `O=C(NCc1ccccc1)c1c[nH]c2c(c1=O)CCCC2` yielded a melting point of 257 to 259 °C.
